Laboratory results taken from US20210220328A1, “PYRROLE DERIVATIVES AS ACC INHIBITORS” (Almirall, S.A., priority 2017, published 2021).

Test system: immortalized human sebocyte cell line, SZ95
Assay: In vitro assay of inhibition of lipid synthesis
Type: cell-based
Conditions: 48 h, SZ95 sebocytes
Protocol: In Vitro Assay of Inhibition of Lipid Synthesis
To evaluate the inhibition of lipid synthesis, the immortalized human sebocyte cell line, SZ95 (stablished by Zouboulis, C. C. et al J Invest Dermatol 1999; 113:1011-20), was treated with arachidonic acid (AA) in presence or absence of compound. Lipids were detected by using a lipid sensing fluorophore.
Compounds were dissolved in dimethylsulfoxide (DMSO) 100%. Then the stocks were serial diluted 1/3 in DMSO 100%, and this battery of solutions were diluted 1/10 in culture medium, to minimize the percentage of the DMSO over cells.
10 k cells were plated in 384 well microtiter plates and incubated at 37° C. and 5% CO2 in DMEM/F12 supplemented with 10% FBS, 1.25 ng/ml of rhEGF and GA-1000 before of compound and stimulus addition. After 24 h, compounds dissolved in culture media were added over cells, diluting the solutions prepared 1/40 in the final volume of the assay. Then, cells and compounds were preincubated for 30 min at 37° C. and 5% CO2. After this prior incubation, the lipid synthesis was induced by 75 μM of AA final solution, preparing a solution 10× in culture media. Finally, SZ95 treated were incubated for 48 h at 37° C. and 5% CO2.
Neutral lipids were measured using AdipoRed™, purchased from LONZA. To do that, cells were washed with PBS and incubated with a solution of AdipoRed™ (final dilution 1/80 in PBS) for 30 min at room temperature. After the staining process, the fluorescence intensity (FI) was quantified using a fluorescence plate reader (excitation 485 nm; emission 535).
Activity of compounds were calculated as % of inhibition considering the maximal fluorescence for AA-stimulated cells and the minimum fluorescence for unstimulated cells as controls.

[1] = 75 μM arachidonic acid, AdipoRed, Table 2, finer classes for compounds with IC50 less than 250 nM
[2] = lipid synthesis induced by 75 μM arachidonic acid, AdipoRed fluorescence, Table 1

| SMILES | IC50 [1] [nM] | IC50 [2] [nM] |
| --- | --- | --- |
| CCCCCCCCCCCCCc1c[nH]c(C(=O)OCCOCCOCCOCCO)c1F [Example 42, 2-(2-(2-(2-Hydroxyethoxy)ethoxy)ethoxy)ethyl 3-fluoro-4-tridecyl-1H-pyrrole-2-carboxylate] | 100 to 250 | < 250 |
| CCCCCCCCCCCCCc1c[nH]c(C(=O)OCCOCCOCC)c1F [Example 43, 2-(2-Ethoxyethoxy)ethyl 3-fluoro-4-tridecyl-1H-pyrrole-2-carboxylate] | < 50 | < 250 |
| CCCCCCCCCCCCCc1c[nH]c(C(=O)OC(C)OC(=O)OC(C)C)c1F (stereo not shown) [Example 44, 1-((Isopropoxycarbonyl)oxy)ethyl 3-fluoro-4-tridecyl-1H-pyrrole-2-carboxylate] | < 50 | < 250 |
| CCCCCCCCCCCCCc1c[nH]c(C(=O)OC(C)OC(=O)OC(C)(C)C)c1F (stereo not shown) [Example 45, 1-((Tert-butoxycarbonyl)oxy)ethyl 3-fluoro-4-tridecyl-1H-pyrrole-2-carboxylate] | 50 to 100 | < 250 |
| CCCCCCCCCCCCCc1c[nH]c(C(=O)OC(C)OC(=O)OCCCCCCCCC)c1F (stereo not shown) [Example 46, 1-(((Nonyloxy)carbonyl)oxy)ethyl 3-fluoro-4-tridecyl-1H-pyrrole-2-carboxylate] | – | > 5000 |
| CCCCCCCCCCCCCc1c[nH]c(C(=O)OC(C)OC(=O)OC2CCCCC2)c1F (stereo not shown) [Example 47, 1-(((Cyclohexyloxy)carbonyl)oxy)ethyl 3-fluoro-4-tridecyl-1H-pyrrole-2-carboxylate] | 50 to 100 | < 250 |
| CCCCCCCCCCCCCc1c[nH]c(C(=O)OC(C)OC(=O)OCc2ccccc2)c1F (stereo not shown) [Example 48, 1-(((Benzyloxy)carbonyl)oxy)ethyl 3-fluoro-4-tridecyl-1H-pyrrole-2-carboxylate] | < 50 | < 250 |
| CCCCCCCCCCCCCc1c[nH]c(C(=O)OC(C)OC(=O)OCCOC)c1F (stereo not shown) [Example 49, 1-(((2-Methoxyethoxy)carbonyl)oxy)ethyl 3-fluoro-4-tridecyl-1H-pyrrole-2-carboxylate] | < 50 | < 250 |
| CCCCCCCCCCCCCc1c[nH]c(C(=O)OC(C)OC(=O)OCCCO)c1F (stereo not shown) [Example 50, 1-(((3-Hydroxypropoxy)carbonyl)oxy)ethyl 3-fluoro-4-tridecyl-1H-pyrrole-2-carboxylate] | < 50 | < 250 |
| CCCCCCCCCCCCCc1c[nH]c(C(=O)OC(C)OC(=O)OCCOCCOCC)c1F (stereo not shown) [Example 51, 4-Oxo-3,5,8,11-tetraoxatridecan-2-yl 3-fluoro-4-tridecyl-1H-pyrrole-2-carboxylate] | < 50 | < 250 |
| CCCCCCCCCCCCCCc1c[nH]c(C(=O)O)c1F [Example 52, 3-Fluoro-4-tetradecyl-1H-pyrrole-2-carboxylic acid] | < 50 | < 250 |
| CCCCCCCCCCCCCCCc1c[nH]c(C(=O)O)c1F [Example 53, 3-Fluoro-4-pentadecyl-1H-pyrrole-2-carboxylic acid] | < 50 | < 250 |
| CCCCCCCCCCCCCCCCCc1c[nH]c(C(=O)O)c1F [Example 54, 3-Fluoro-4-heptadecyl-1H-pyrrole-2-carboxylic acid] | < 50 | < 250 |
| CCCCCCCCCCCCc1cc(F)c(C(=O)O)[nH]1 [Example 55, 5-Dodecyl-3-fluoro-1H-pyrrole-2-carboxylic acid] | 50 to 100 | < 250 |
| CCCCCCCCCCc1c[nH]c(C(=O)O)c1Cl [Example 56, 3-Chloro-4-decyl-1H-pyrrole-2-carboxylic acid] | 50 to 100 | < 250 |
| CCCCCCCCCCCc1c[nH]c(C(=O)O)c1Cl [Example 57, 3-Chloro-4-undecyl-1H-pyrrole-2-carboxylic acid] | < 50 | < 250 |
| CCCCCCCCCCCCc1c[nH]c(C(=O)O)c1Cl [Example 58, 3-Chloro-4-dodecyl-1H-pyrrole-2-carboxylic acid] | < 50 | < 250 |
| CCCCCCCCCCCCc1c[nH]c(C(=O)OCCCCCCCCCO)c1Cl [Example 59, 9-Hydroxynonyl 3-chloro-4-dodecyl-1H-pyrrole-2-carboxylate] | – | 250 to 1000 |
| CCCCCCCCCCCCc1c[nH]c(C(=O)OCCN2C(=O)CCC2=O)c1Cl [Example 60, 2-(2,5-dioxopyrrolidin-1-yl)ethyl 3-chloro-4-dodecyl-1H-pyrrole-2-carboxylate] | – | 1000 to 5000 |
| CCCCCCCCCCCCCc1c[nH]c(C(=O)O)c1Cl [Example 61, 3-Chloro-4-tridecyl-1H-pyrrole-2-carboxylic acid] | 100 to 250 | < 250 |
| CCCCCCCCCCCCCCCc1c[nH]c(C(=O)O)c1Cl [Example 62, 3-Chloro-4-pentadecyl-1H-pyrrole-2-carboxylic acid] | – | 250 to 1000 |

| SMILES | IC50 [1] [nM] | IC50 [2] [nM] |
| --- | --- | --- |
| CCCCCCCCCCCCCCCCc1c[nH]c(C(=O)O)c1Cl [Example 63, 3-Chloro-4-hexadecyl-1H-pyrrole-2-carboxylic acid] | – | 250 to 1000 |
| CCCCCCCCCCCc1cc(Cl)c(C(=O)O)[nH]1 [Example 64, 3-Chloro-5-undecyl-1H-pyrrole-2-carboxylic acid] | 50 to 100 | < 250 |
| CCCCCCCCCCCCc1cc(Cl)c(C(=O)O)[nH]1 [Example 65, 3-Chloro-5-dodecyl-1H-pyrrole-2-carboxylic acid] | 50 to 100 | < 250 |
| CCCCCCCCCCCCCc1cc(Cl)c(C(=O)O)[nH]1 [Example 66, 3-Chloro-5-tridecyl-1H-pyrrole-2-carboxylic acid] | 100 to 250 | < 250 |
| CCCCCCCCCCCCCCc1cc(Cl)c(C(=O)O)[nH]1 [Example 67, 3-Chloro-5-tetradecyl-1H-pyrrole-2-carboxylic acid] | – | 250 to 1000 |
| CCCCCCCCCCCCCc1c[nH]c(C(=O)O)c1Br [Example 68, 3-Bromo-4-tridecyl-1H-pyrrole-2-carboxylic acid] | – | 250 to 1000 |
| CCCCCCCCCCCCCc1cn(CCCC)c(C(=O)O)c1F [Example 69, 1-Butyl-3-fluoro-4-tridecyl-1H-pyrrole-2-carboxylic acid] | – | 1000 to 5000 |
| CCCCCCCCCCCCCc1cn(C(C)C)c(C(=O)O)c1F [Example 70, 3-Fluoro-1-isopropyl-4-tridecyl-1H-pyrrole-2-carboxylic acid] | – | 1000 to 5000 |
| CCCCCCCCCCOc1c[nH]c(C(=O)O)c1F [Example 71, 4-(Decyloxy)-3-fluoro-1H-pyrrole-2-carboxylic acid] | < 50 | < 250 |
| CCCCCCCCCCCOc1c[nH]c(C(=O)O)c1F [Example 72, 3-Fluoro-4-(undecyloxy)-1H-pyrrole-2-carboxylic acid] | < 50 | < 250 |
| CCCCCCCCCCCCOc1c[nH]c(C(=O)O)c1F [Example 73, 4-(Dodecyloxy)-3-fluoro-1H-pyrrole-2-carboxylic acid] | < 50 | < 250 |
| CCCCCCCCCCCCCOc1c[nH]c(C(=O)O)c1F [Example 74, 3-Fluoro-4-(tridecyloxy)-1H-pyrrole-2-carboxylic acid] | < 50 | < 250 |
| CCCCCCCCCCCCCCOc1c[nH]c(C(=O)O)c1F [Example 75, 3-Fluoro-4-(tetradecyloxy)-1H-pyrrole-2-carboxylic acid] | < 50 | < 250 |
| CCCCCCCCCCCCSc1c[nH]c(C(=O)O)c1F [Example 76, 4-(Dodecylthio)-3-fluoro-1H-pyrrole-2-carboxylic acid] | – | 1000 to 5000 |
| CCCCCCCCCOc1c[nH]c(C(=O)O)c1Cl [Example 77, 3-chloro-4-(nonyloxy)-1H-pyrrole-2-carboxylic acid] | 50 to 100 | < 250 |
| CCCCCCCCCCOc1c[nH]c(C(=O)O)c1Cl [Example 78, 3-Chloro-4-(decyloxy)-1H-pyrrole-2-carboxylic acid] | < 50 | < 250 |
| CCCCCCCCCCCOc1c[nH]c(C(=O)O)c1Cl [Example 79, 3-Chloro-4-(undecyloxy)-1H-pyrrole-2-carboxylic acid] | < 50 | < 250 |
| CCCCCCCCCCCCOc1c[nH]c(C(=O)O)c1Cl [Example 80, 3-Chloro-4-(dodecyloxy)-1H-pyrrole-2-carboxylic acid] | < 50 | < 250 |
| CCCCCCCCCCCCOc1c[nH]c(C(=O)OCC(F)(F)F)c1Cl [Example 81, 2,2,2-Trifluoroethyl 3-chloro-4-(dodecyloxy)-1H-pyrrole-2-carboxylate] | 100 to 250 | < 250 |
| CCCCCCCCCCCCOc1c[nH]c(C(=O)OCCCCCCCCCO)c1Cl [Example 82, 9-Hydroxynonyl 3-chloro-4-(dodecyloxy)-1H-pyrrole-2-carboxylate] | 100 to 250 | < 250 |
| CCCCCCCCCCCCOc1c[nH]c(C(=O)OCCOCCOCC)c1Cl [Example 83, 2-(2-Ethoxyethoxy)ethyl 3-chloro-4-(dodecyloxy)-1H-pyrrole-2-carboxylate] | – | 250 to 1000 |
